Target: T1, Retinoic acid receptor RXR-alpha (Homo sapiens, UniProt P19793)
T1 sequence (P19793 whole entry): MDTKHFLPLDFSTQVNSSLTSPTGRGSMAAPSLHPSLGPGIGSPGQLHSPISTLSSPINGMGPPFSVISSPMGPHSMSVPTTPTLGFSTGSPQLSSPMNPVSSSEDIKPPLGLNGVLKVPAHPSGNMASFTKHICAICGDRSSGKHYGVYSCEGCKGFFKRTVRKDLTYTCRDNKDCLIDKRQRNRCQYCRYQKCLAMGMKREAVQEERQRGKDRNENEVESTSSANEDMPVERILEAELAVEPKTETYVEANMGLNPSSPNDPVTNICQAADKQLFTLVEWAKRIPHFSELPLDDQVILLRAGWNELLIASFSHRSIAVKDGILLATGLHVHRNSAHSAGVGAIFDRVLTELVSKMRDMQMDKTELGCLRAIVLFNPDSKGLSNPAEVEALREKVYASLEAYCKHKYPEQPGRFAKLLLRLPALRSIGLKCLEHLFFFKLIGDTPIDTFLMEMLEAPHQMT
Assay: Displacement of CU-6PMN from human RXRalpha LBD incubated for 2 hrs by fluorescence based assay; call rule not given here

Row | Ki (read-out: Ki) [µM] | Ki | SMILES
1 | 7.63 |  | CC/C=C\C/C=C\C/C=C\C/C=C\C/C=C\CCCC(=O)O [ICOSAPENT]
2 |  | Not Active | CCCCCCCCCCCCCCCC(=O)O [PALMITIC ACID]

— ChEMBL document CHEMBL4414573, “Competitive Binding Assay with an Umbelliferone-Based Fluorescent Rexinoid for Retinoid X Receptor Ligand Screening” (J Med Chem, 2019)
